The assay deals with Bifunctional purine biosynthesis protein ATIC (Homo sapiens, UniProt P31939). The assay is described as follows: ChEBML_28408. On the procedure:
Compound was tested for inhibition of AICAR formyltransferase

Chain of Bifunctional purine biosynthesis protein ATIC (P31939 whole entry): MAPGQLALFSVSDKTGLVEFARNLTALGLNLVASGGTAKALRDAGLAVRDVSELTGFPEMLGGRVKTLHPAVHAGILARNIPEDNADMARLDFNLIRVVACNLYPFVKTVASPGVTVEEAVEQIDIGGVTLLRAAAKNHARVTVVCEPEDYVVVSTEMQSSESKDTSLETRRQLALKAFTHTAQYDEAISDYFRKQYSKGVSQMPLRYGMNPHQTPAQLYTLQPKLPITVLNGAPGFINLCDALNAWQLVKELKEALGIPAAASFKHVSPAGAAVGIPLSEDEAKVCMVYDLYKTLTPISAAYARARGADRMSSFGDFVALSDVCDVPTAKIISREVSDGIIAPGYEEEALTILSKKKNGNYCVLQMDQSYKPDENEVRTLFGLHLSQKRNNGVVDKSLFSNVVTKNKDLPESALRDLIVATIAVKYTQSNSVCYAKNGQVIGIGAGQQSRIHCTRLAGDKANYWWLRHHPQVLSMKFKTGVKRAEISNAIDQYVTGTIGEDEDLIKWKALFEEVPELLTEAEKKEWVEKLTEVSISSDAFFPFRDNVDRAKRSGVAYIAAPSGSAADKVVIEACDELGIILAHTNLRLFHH

Take `CC1c2c(nc(N)[nH]c2=O)NCC1CCc1ccc(C(=O)NC(CCC(=O)O)C(=O)O)cc1` (stereo not drawn) [(5RS, 6RS) 2-{4-[2-(2-Amino-5-methyl-4-oxo-3,4,5,6,7,8-hexahydro-pyrido[2,3-d]pyrimidin-6-yl)-ethyl]-benzoylamino}-pentanedioic acid]: the IC50 was above 20 µM.

These data come from BindingDB's records for doi:10.1021/jm00119a018 (Southern Research Institute, 1988).
